Data from patent publication US8293790B2, “Pharmaceutical compositions comprising DGLA and benzoyl peroxide and methods of use thereof” (Dignity Sciences Limited, priority 2011, dated 2012).
≈ marks a conversion by molar mass, not a printed value. Where two headings read alike, the source gives them in different places. Marks after values point to notes of the source that are not given here.

Key:
[1] = tested on: P. acnes; assay: Agar dilution method: growth of P. acnes and MIC, compounds tested singly; format: cell-based, Propionibacterium acnes; design: key to Growth Index (+++, ++, +, −) Plate 1 / Growth Index (+++, ++, +, −) Plate 2 / Growth Index (+++, ++, +, −) Plate 3 / Growth Index (+++, ++, +, −) Avg: +++: confluent growth (comparable to control); ++: less confluent growth; +: marked reduction in growth to multiple tiny, single colonies; −: no growth present; MIC: unit: mg/mL; conditions: for MIC: compound alone
Method: (§1) Several compounds including fatty acids such as DGLA, 15-OHEPA, and 15-HETrE were tested to determine their capacity to inhibit the growth of P. acnes. In an exemplary method, an agar dilution method was used to determine the minimum inhibitory concentration (MIC) of each tested compound. Briefly, the agar dilution method involved preparing a series of concentrations of each compound (e.g., nicotinamide, benzoyl peroxide, adapalene, metronidazole, DGLA, 15-OHEPA, and 15-HETrE) in a Reinforced Clostridial Agar (RCA) media that facilitates growth of P. acnes under anaerobic conditions. An inoculum of P. acnes was prepared by incubation of P. acnes for approximately seven days at 35-37° C. to achieve a ≧1.0 OD600 inoculum of P. acnes in RCM broth. A portion of this inoculum was then added to the surface of each plate as a 10 μL spot and incubated at 35-37° C. for 72 hours or more. Growth of P. acnes was then observed and compared to control plates in which no compound has been added, and positive inhibition plates prepared with erythromycin. […] The growth of P. acnes in the presence of nicotinamide, benzoyl peroxide, adapalene, metronidazole, DGLA, 15-OHEPA, and 15-HETrE was determined with varying concentrations of the compound (see, Table 2). Next, the MIC was determined as the concentration at which a marked reduction (+) occurs in the appearance of growth on the test plate (as per Clinical and Laboratory Standards Institute M11-A7).

[2] = tested on: P. acnes; assay: Agar dilution method: growth of P. acnes and MIC, fatty acid compounds in combination with other compounds; format: cell-based, Propionibacterium acnes; conditions: for MIC (mg/mL) with 0.05 mg/mL 15-HETrE spike / MIC (mg/mL) with 0.1 mg/mL 15-OHEPA spike: itself an inhibitory concentration
Method: as §1, with “M11-A7). The compounds tested singly in Example 1 were tested in combination with one another to determine the capacity of the combination to inhibit the growth of P. acnes. In an exemplary method, the MIC was determined for each of the combination as described in Example 1. Briefly, test combinations included DGLA with nicotinamide, benzoyl peroxide, adapalene, or metronidazole; 15-HETrE with nicotinamide, benzoyl peroxide, adapalene, or metronidazole; and 15-OHEPA with nicotinamide, benzoyl peroxide, adapalene, or metronidazole. The tables below show the growth of P. acnes in the presence of 0.4 or 1.0 mg/mL DGLA with varying concentrations of nicotinamide, benzoyl peroxide, adapalene, or metronidazole (Table 3); the growth of P. acnes in the presence of 0.01 or 0.05 mg/mL 15-HETrE with varying concentrations of nicotinamide, benzoyl peroxide, adapalene, or metronidazole (Table 5); and the growth of P. acnes in the presence of 0.5 or 0.1 mg/mL 15-OHEPA with varying concentrations of nicotinamide, benzoyl peroxide, adapalene, or metronidazole (Table 7).” for “M11-A7).”

[3] = compound at 0.00001 mg/mL in agar
[4] = compound at 0.0001 mg/mL in agar
[5] = compound at 0.001 mg/mL in agar
[6] = Cutibacterium acnes, MIC = concentration with marked reduction (+) of growth, read-out: MIC (mg/mL) as per P-11-0007 or P-11-0008 Addendum A
[7] = compound at 0.010 mg/mL in agar
[8] = compound at 0.025 mg/mL in agar
[9] = compound at 0.050 mg/mL in agar
[10] = compound at 0.075 mg/mL in agar

## CCCCCC(O)/C=C/C=C\C/C=C\CCCCCCC(=O)O (stereo not shown) [15-HETrE, 15-Hydroxy-eicosa-8(Z),11(Z),13(E)-trienoic acid]
[1]; 0.01 mg/ml
  effect on growth of P. acnes on its own: no effect on its own
[1]; [3]
  Growth Index (+++, ++, +, −) Avg: +++
  Growth Index (+++, ++, +, −) Plate 1: +++
  Growth Index (+++, ++, +, −) Plate 2: +++
  Growth Index (+++, ++, +, −) Plate 3: +++
[1]; [4]
  Growth Index (+++, ++, +, −) Avg: +++
  Growth Index (+++, ++, +, −) Plate 1: +++
  Growth Index (+++, ++, +, −) Plate 2: +++
  Growth Index (+++, ++, +, −) Plate 3: +++
[1]; [5]
  Growth Index (+++, ++, +, −) Avg: +++
  Growth Index (+++, ++, +, −) Plate 1: +++
  Growth Index (+++, ++, +, −) Plate 2: +++
  Growth Index (+++, ++, +, −) Plate 3: +++
[1]; compound at 0.01 mg/mL in agar
  Growth Index (+++, ++, +, −) Avg: ++
  Growth Index (+++, ++, +, −) Plate 1: ++
  Growth Index (+++, ++, +, −) Plate 2: +++
  Growth Index (+++, ++, +, −) Plate 3: ++

## CCC=CCC(O)C=CC=CCC=CCC=CCCCC(=O)O (stereo not shown) [15-OHEPA, 15-Hydroxy-eicosa-5,8,11,13,17-pentaenoic acid]
[1]; 0.05 mg/mL
  effect on growth of P. acnes on its own: no effect on its own
[1]; [6]
  MIC: 50 to 75 µg/mL (≈ 157 to 236 µM)
[1]; [7]
  Growth Index (+++, ++, +, −) Avg: +++
  Growth Index (+++, ++, +, −) Plate 1: +++
  Growth Index (+++, ++, +, −) Plate 2: +++
  Growth Index (+++, ++, +, −) Plate 3: +++
[1]; [8]
  Growth Index (+++, ++, +, −) Avg: +++
  Growth Index (+++, ++, +, −) Plate 1: +++
  Growth Index (+++, ++, +, −) Plate 2: +++
  Growth Index (+++, ++, +, −) Plate 3: +++
[1]; [9]
  Growth Index (+++, ++, +, −) Avg: +++
  Growth Index (+++, ++, +, −) Plate 1: +++
  Growth Index (+++, ++, +, −) Plate 2: +++
  Growth Index (+++, ++, +, −) Plate 3: +++
[1]; [10]
  Growth Index (+++, ++, +, −) Avg: +
  Growth Index (+++, ++, +, −) Plate 1: +
  Growth Index (+++, ++, +, −) Plate 2: +
  Growth Index (+++, ++, +, −) Plate 3: +

## COc1ccc(-c2ccc3cc(C(=O)O)ccc3c2)cc1C12CC3CC(CC(C3)C1)C2 [Adapalene, 6-[3-(1-adamantyl)-4-methoxyphenyl]-2-naphthoic acid]
[1]; [6]
  MIC: > 800 µg/mL
[1]; no unit in the sentence
  MIC: > 0.8
[1]; compound at 0.2 mg/mL in agar
  Growth Index (+++, ++, +, −) Avg: +++
  Growth Index (+++, ++, +, −) Plate 1: +++
  Growth Index (+++, ++, +, −) Plate 2: +++
  Growth Index (+++, ++, +, −) Plate 3: +++
[1]; compound at 0.4 mg/mL in agar
  Growth Index (+++, ++, +, −) Avg: +++
  Growth Index (+++, ++, +, −) Plate 1: +++
  Growth Index (+++, ++, +, −) Plate 2: +++
  Growth Index (+++, ++, +, −) Plate 3: +++
[1]; compound at 0.6 mg/mL in agar
  Growth Index (+++, ++, +, −) Avg: ++
  Growth Index (+++, ++, +, −) Plate 1: ++
  Growth Index (+++, ++, +, −) Plate 2: ++
  Growth Index (+++, ++, +, −) Plate 3: +++
[1]; compound at 0.8 mg/mL in agar
  Growth Index (+++, ++, +, −) Avg: ++
  Growth Index (+++, ++, +, −) Plate 1: ++
  Growth Index (+++, ++, +, −) Plate 2: ++
  Growth Index (+++, ++, +, −) Plate 3: ++
[2]
  MIC (mg/mL) with 0.05 mg/mL 15-HETrE spike: <0.2 mg/mL
  MIC (mg/mL) with 0.1 mg/mL 15-OHEPA spike: <0.2 mg/mL
[2]; 0.05 mg/mL 15-OHEPA spike
  MIC (mg/mL) with 0.05 mg/mL 15-OHEPA spike: >0.8 mg/mL
[2]; 0.4 mg/mL dGLA spike, dGLA supplied by Sigma, cat# E4504
  MIC (mg/mL) with 0.4 mg/mL dGLA spike: >0.6* mg/mL
[2]; 1.0 mg/mL dGLA spike, dGLA supplied by Cayman, cat# 90230
  MIC (mg/mL) with 1.0 mg/mL dGLA spike: >0.6* mg/mL
[2]; in combination with 15-OHEPA
  growth of P. acnes in combination with 15-OHEPA compared with 15-OHEPA alone: did not reduce the growth of P. Acnes below that of 15 OHEPA used alone
[2]; in combination with DGLA
  growth of P. acnes in combination with DGLA compared with DGLA alone: did not reduce the growth of P. Acnes below that of DGLA used alone

## O=C(OOC(=O)c1ccccc1)c1ccccc1 [Benzoyl Peroxide, benzoyl peroxide]
[1]; [6]
  MIC: 600 to 800 µg/mL (≈ 2480 to 3300 µM)
[1]; compound at 0.2 mg/mL in agar
  Growth Index (+++, ++, +, −) Avg: +++
  Growth Index (+++, ++, +, −) Plate 1: +++
  Growth Index (+++, ++, +, −) Plate 2: +++
  Growth Index (+++, ++, +, −) Plate 3: +++
[1]; compound at 0.4 mg/mL in agar
  Growth Index (+++, ++, +, −) Avg: +++
  Growth Index (+++, ++, +, −) Plate 1: +++
  Growth Index (+++, ++, +, −) Plate 2: +++
  Growth Index (+++, ++, +, −) Plate 3: +++
[1]; compound at 0.6 mg/mL in agar
  Growth Index (+++, ++, +, −) Avg: ++
  Growth Index (+++, ++, +, −) Plate 1: ++
  Growth Index (+++, ++, +, −) Plate 2: +++
  Growth Index (+++, ++, +, −) Plate 3: ++
[1]; compound at 0.8 mg/mL in agar
  Growth Index (+++, ++, +, −) Avg: +
  Growth Index (+++, ++, +, −) Plate 1: +
  Growth Index (+++, ++, +, −) Plate 2: +
  Growth Index (+++, ++, +, −) Plate 3: +
[2]
  MIC (mg/mL) with 0.05 mg/mL 15-HETrE spike: <0.2 mg/mL
  MIC (mg/mL) with 0.1 mg/mL 15-OHEPA spike: <0.2 mg/mL
[2]; in combination with 15-HETrE
  growth of P. acnes in combination with 15-HETrE compared with 15-HETrE alone: did not reduce the growth of P. Acnes below that of 15-HETrE used alone

## CCCCC/C=C\C/C=C\C/C=C\CCCCCCC(=O)O [DGLA, cis-8,11,14-eicosatrienoic acid]
[1]; 0.4 mg/ml
  effect on growth of P. acnes on its own: no effect on its own
[1]; [6]
  MIC: 400 to 600 µg/mL (≈ 1310 to 1960 µM)
[1]; compound at 0.2 mg/mL in agar
  Growth Index (+++, ++, +, −) Avg: +++
  Growth Index (+++, ++, +, −) Plate 1: +++
  Growth Index (+++, ++, +, −) Plate 2: +++
  Growth Index (+++, ++, +, −) Plate 3: +++
[1]; compound at 0.4 mg/mL in agar
  Growth Index (+++, ++, +, −) Avg: +++
  Growth Index (+++, ++, +, −) Plate 1: +++
  Growth Index (+++, ++, +, −) Plate 2: +++
  Growth Index (+++, ++, +, −) Plate 3: +++
[1]; compound at 0.6 mg/mL in agar
  Growth Index (+++, ++, +, −) Avg: +
  Growth Index (+++, ++, +, −) Plate 1: ++
  Growth Index (+++, ++, +, −) Plate 2: −
  Growth Index (+++, ++, +, −) Plate 3: ++
[1]; compound at 0.8 mg/mL in agar
  Growth Index (+++, ++, +, −) Avg: +
  Growth Index (+++, ++, +, −) Plate 1: ++
  Growth Index (+++, ++, +, −) Plate 2: +
  Growth Index (+++, ++, +, −) Plate 3: +
[1]; compound at 1.0 mg/mL in agar
  Growth Index (+++, ++, +, −) Avg: +
  Growth Index (+++, ++, +, −) Plate 1: +
  Growth Index (+++, ++, +, −) Plate 2: +
  Growth Index (+++, ++, +, −) Plate 3: +

## CC[C@H]1OC(=O)[C@H](C)[C@@H](O[C@H]2C[C@@](C)(OC)[C@@H](O)[C@H](C)O2)[C@H](C)[C@@H](O[C@@H]2O[C@H](C)C[C@H](N(C)C)[C@H]2O)[C@](C)(O)C[C@@H](C)C(=O)[C@H](C)[C@@H](O)[C@]1(C)O [Erythromycin]
[1]; [6]
  MIC: 0.01 to 0.05 µg/mL (≈ 0.0136 to 0.0681 µM)
